According to PubChem BioAssay (NCI):
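Assay format: 96-well plates, 48-hour exposure. GI50 is the concentration that inhibits growth by half. TGI denotes the concentration required for complete inhibition of growth.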

Legend:
Assay in all cases: DTP human tumour cell line panel, 48 h
[1] = test system: 786-0 renal
[2] = test system: A498 renal
[3] = test system: A549 NSCLC
[4] = test system: ACHN renal
[5] = test system: BT-549 breast
[6] = test system: CAKI-1 renal
[7] = test system: CCRF-CEM leukemia
[8] = test system: COLO 205 colon
[9] = test system: DU-145 prostate
[10] = test system: EKVX NSCLC
[11] = test system: HCC-2998 colon
[12] = test system: HCT-116 colon
[13] = test system: HCT-15 colon
[14] = test system: HL-60(TB) leukemia
[15] = test system: HOP-62 NSCLC
[16] = test system: HOP-92 NSCLC
[17] = test system: HS 578T breast
[18] = test system: HT29 colon
[19] = test system: IGROV1 ovarian
[20] = test system: K-562 leukemia
[21] = test system: KM12 colon
[22] = test system: LOX IMVI melanoma
[23] = test system: M14 melanoma
[24] = test system: MALME-3M melanoma
[25] = test system: MCF7 breast
[26] = test system: MDA-MB-231 breast
[27] = test system: MDA-MB-435
[28] = test system: MDA-MB-468 breast
[29] = test system: NCI-H226 lung

N#Cc1c(NC(=O)c2ccc(C(O)(C(F)(F)F)C(F)(F)F)cc2)sc2c1CCC(=O)C2
GI50 [1]: 1130 nM
TGI [1]: 2890 nM
GI50 [2]: 12200 nM
TGI [2]: 26500 nM
GI50 [3]: 2750 nM
TGI [3]: 12600 nM
GI50 [4]: 346 nM
TGI [4]: 1350 nM
GI50 [5]: 422 nM
TGI [5]: 1780 nM
GI50 [6]: 465 nM
TGI [6]: 1800 nM
GI50 [7]: 338 nM
TGI [7]: 7290 nM
GI50 [8]: 995 nM
TGI [8]: 2660 nM
GI50 [9]: 3380 nM
TGI [9]: 11700 nM
GI50 [10]: 2650 nM
TGI [10]: 8400 nM
GI50 [11]: 1710 nM
TGI [11]: 3150 nM
GI50 [12]: 466 nM
TGI [12]: 5290 nM
GI50 [13]: 1100 nM
TGI [13]: 2920 nM
GI50 [14]: 415 nM
TGI [14]: > 100000 nM
GI50 [15]: 3530 nM
TGI [15]: 13100 nM
GI50 [16]: 475 nM
TGI [16]: 1460 nM
GI50 [17]: 1770 nM
TGI [17]: 5550 nM
GI50 [18]: 478 nM
TGI [18]: 6440 nM
GI50 [19]: 1810 nM
TGI [19]: 3860 nM
GI50 [20]: 297 nM
TGI [20]: > 100000 nM
GI50 [21]: 1460 nM
TGI [21]: 3320 nM
GI50 [22]: 455 nM
TGI [22]: 1680 nM
GI50 [23]: 739 nM
TGI [23]: 2770 nM
GI50 [24]: 641 nM
TGI [24]: 1940 nM
GI50 [25]: 616 nM
TGI [25]: 2530 nM
GI50 [26]: 1470 nM
TGI [26]: 2930 nM
GI50 [27]: 1930 nM
TGI [27]: 4180 nM
GI50 [28]: 600 nM
TGI [28]: 1670 nM
GI50 [29]: 2010 nM
TGI [29]: 5670 nM
